Reference: ChEMBL document CHEMBL1146212, “Glyceraldehyde 3-phosphate dehydrogenase is a cellular target of the insulin mimic demethylasterriquinone B1” (J Med Chem, 2007)
pIC50, pKd: −log10 of the molar value.

Legend:
[1] = biological target: Glyceraldehyde-3-phosphate dehydrogenase (Oryctolagus cuniculus, UniProt P46406); assay: Binding affinity to GAPDH in rabbit muscle
[2] = biological target: Glyceraldehyde-3-phosphate dehydrogenase (Homo sapiens, UniProt P04406); assay: Binding affinity to GAPDH in human erythrocytes; type: cell-based
Chain of Glyceraldehyde-3-phosphate dehydrogenase (Homo sapiens, UniProt P04406) (P04406 whole entry): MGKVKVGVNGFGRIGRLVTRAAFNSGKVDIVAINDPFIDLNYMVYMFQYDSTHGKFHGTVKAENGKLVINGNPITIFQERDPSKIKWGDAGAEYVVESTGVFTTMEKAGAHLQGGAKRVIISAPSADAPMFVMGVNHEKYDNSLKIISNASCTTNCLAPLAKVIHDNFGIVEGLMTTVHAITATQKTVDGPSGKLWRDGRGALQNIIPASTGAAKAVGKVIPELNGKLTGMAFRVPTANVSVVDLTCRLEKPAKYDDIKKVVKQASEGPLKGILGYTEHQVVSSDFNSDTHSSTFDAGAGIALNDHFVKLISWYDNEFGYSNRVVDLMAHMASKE

Chain of Glyceraldehyde-3-phosphate dehydrogenase (Oryctolagus cuniculus, UniProt P46406) (P46406 whole entry): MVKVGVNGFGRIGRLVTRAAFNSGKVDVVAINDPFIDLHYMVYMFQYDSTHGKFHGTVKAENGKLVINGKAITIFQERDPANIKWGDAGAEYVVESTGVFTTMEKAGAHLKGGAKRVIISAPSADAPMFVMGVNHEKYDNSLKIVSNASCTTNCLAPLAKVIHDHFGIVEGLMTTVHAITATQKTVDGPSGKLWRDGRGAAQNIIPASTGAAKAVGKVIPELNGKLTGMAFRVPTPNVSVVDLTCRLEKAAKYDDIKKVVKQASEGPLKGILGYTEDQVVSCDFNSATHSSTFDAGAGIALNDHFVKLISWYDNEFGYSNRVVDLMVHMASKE

pIC50 [1] | pKd [2] | SMILES
4.82 | 5.14 | C=CC(C)(C)c1[nH]c2ccccc2c1C1=C(O)C(O)=C(c2c[nH]c3c(CC=C(C)C)cccc23)C(=O)C1=O
– | 5.12 | CC(C)=CCc1cccc2c(C3=C(O)C(=O)C(c4c(C)[nH]c5ccc(NC(=O)CCCCCNC(=O)CCCCC6SCC7NC(=O)NC76)cc45)=C(O)C3=O)c[nH]c12 (stereo not drawn)
